Values after ≈ are worked out from the molar mass of the structure shown.
How the values were obtained:
Type in all cases: functional
Enterococcus faecalis [1] = experiment: Antimicrobial activity against vancomycin-susceptible Enterococcus faecalis clinical isolates assessed as percent susceptible isolates by broth microdilution method
[2] = tested on: Staphylococcus epidermidis; experiment: Antimicrobial activity against oxacillin-susceptible Staphylococcus epidermidis clinical isolates assessed as percent susceptible isolates by broth microdilution method
Staphylococcus aureus [3] = experiment: Antimicrobial activity against oxacillin-susceptible Staphylococcus aureus clinical isolates assessed as percent susceptible isolates by broth microdilution method
[4] = tested on: Staphylococcus haemolyticus; experiment: Antimicrobial activity against oxacillin-susceptible Staphylococcus haemolyticus clinical isolates by broth microdilution method
Enterococcus faecium [5] = experiment: Antimicrobial activity against vancomycin-susceptible Enterococcus faecium clinical isolates assessed as resistant isolates by broth microdilution method
Enterococcus faecium [6] = experiment: Antimicrobial activity against Enterococcus faecium clinical isolates by broth microdilution method
Enterococcus faecium [7] = experiment: Antimicrobial activity against Enterococcus faecium expressing VanB gene clinical isolates assessed as resistant isolates by broth microdilution method
Enterococcus faecium [8] = experiment: Antimicrobial activity against Enterococcus faecium expressing VanA gene clinical isolates assessed as resistant isolates by broth microdilution method
Enterococcus faecalis [9] = experiment: Antimicrobial activity against vancomycin-nonsusceptible Enterococcus faecalis clinical isolates by broth microdilution method
Enterococcus faecalis [10] = experiment: Antimicrobial activity against Enterococcus faecalis clinical isolates by broth microdilution method
Enterococcus faecium [11] = experiment: Antimicrobial activity against Enterococcus faecium expressing VanB gene clinical isolates by broth microdilution method
Staphylococcus aureus [12] = experiment: Antimicrobial activity against oxacillin-resistant Staphylococcus aureus clinical isolates by broth microdilution method
Enterococcus faecium [13] = experiment: Antimicrobial activity against vancomycin-nonsusceptible Enterococcus faecium clinical isolates by broth microdilution method
[14] = tested on: Staphylococcus haemolyticus; experiment: Antimicrobial activity against oxacillin-susceptible Staphylococcus haemolyticus clinical isolates assessed as percent susceptible isolates by broth microdilution method
Enterococcus faecium [15] = experiment: Antimicrobial activity against vancomycin-nonsusceptible Enterococcus faecium clinical isolates assessed as percent susceptible isolates by broth microdilution method
Enterococcus faecium [16] = experiment: Antimicrobial activity against Enterococcus faecium expressing VanA gene clinical isolates assessed as percent susceptible isolates by broth microdilution method
Enterococcus faecalis [17] = experiment: Antimicrobial activity against Enterococcus faecalis clinical isolates assessed as percent susceptible isolates by broth microdilution method
[18] = tested on: Staphylococcus haemolyticus; experiment: Antimicrobial activity against oxacillin-resistant Staphylococcus haemolyticus clinical isolates by broth microdilution method
Enterococcus faecalis [19] = experiment: Antimicrobial activity against vancomycin-nonsusceptible Enterococcus faecalis clinical isolates assessed as resistant isolates by broth microdilution method
[20] = tested on: Staphylococcus epidermidis; experiment: Antimicrobial activity against Staphylococcus epidermidis clinical isolates assessed as percent susceptible isolates by broth microdilution method
Staphylococcus aureus [21] = experiment: Antimicrobial activity against oxacillin-susceptible Staphylococcus aureus clinical isolates by broth microdilution method
Enterococcus faecalis [22] = experiment: Antimicrobial activity against Enterococcus faecalis expressing VanB gene clinical isolates assessed as resistant isolates by broth microdilution method
[23] = tested on: Staphylococcus haemolyticus; experiment: Antimicrobial activity against oxacillin-resistant Staphylococcus haemolyticus clinical isolates assessed as percent susceptible isolates by broth microdilution method
Enterococcus faecium [24] = experiment: Antimicrobial activity against Enterococcus faecium clinical isolates assessed as percent susceptible isolates by broth microdilution method
[25] = tested on: Staphylococcus epidermidis; experiment: Antimicrobial activity against oxacillin-resistant Staphylococcus epidermidis clinical isolates by broth microdilution method
Enterococcus faecalis [26] = experiment: Antimicrobial activity against Enterococcus faecalis expressing VanA gene clinical isolates assessed as resistant isolates by broth microdilution method
Enterococcus faecalis [27] = experiment: Antimicrobial activity against vancomycin-susceptible Enterococcus faecalis clinical isolates by broth microdilution method
Staphylococcus aureus [28] = experiment: Antimicrobial activity against Staphylococcus aureus clinical isolates assessed as percent susceptible isolates by broth microdilution method
Enterococcus faecalis [29] = experiment: Antimicrobial activity against Enterococcus faecalis expressing VanA gene clinical isolates assessed as percent susceptible isolates by broth microdilution method
Enterococcus faecium [30] = experiment: Antimicrobial activity against Enterococcus faecium clinical isolates assessed as resistant isolates by broth microdilution method
Enterococcus faecalis [31] = experiment: Antimicrobial activity against Enterococcus faecalis clinical isolates assessed as resistant isolates by broth microdilution method
[32] = tested on: Staphylococcus epidermidis; experiment: Antimicrobial activity against Staphylococcus epidermidis clinical isolates by broth microdilution method
Enterococcus faecium [33] = experiment: Antimicrobial activity against vancomycin-susceptible Enterococcus faecium clinical isolates assessed as percent susceptible isolates by broth microdilution method
Enterococcus faecium [34] = experiment: Antimicrobial activity against Enterococcus faecium expressing VanA gene clinical isolates by broth microdilution method
Enterococcus faecalis [35] = experiment: Antimicrobial activity against vancomycin-nonsusceptible Enterococcus faecalis clinical isolates assessed as percent susceptible isolates by broth microdilution method
Enterococcus faecalis [36] = experiment: Antimicrobial activity against Enterococcus faecalis expressing VanB gene clinical isolates assessed as percent susceptible isolates by broth microdilution method
Enterococcus faecalis [37] = experiment: Antimicrobial activity against Enterococcus faecalis expressing VanA gene clinical isolates by broth microdilution method
Enterococcus faecium [38] = experiment: Antimicrobial activity against vancomycin-nonsusceptible Enterococcus faecium clinical isolates assessed as resistant isolates by broth microdilution method
[39] = tested on: Staphylococcus haemolyticus; experiment: Antimicrobial activity against Staphylococcus haemolyticus clinical isolates by broth microdilution method
Staphylococcus aureus [40] = experiment: Antimicrobial activity against Staphylococcus aureus clinical isolates by broth microdilution method
Enterococcus faecium [41] = experiment: Antimicrobial activity against Enterococcus faecium expressing VanB gene clinical isolates assessed as percent susceptible isolates by broth microdilution method
Enterococcus faecalis [42] = experiment: Antimicrobial activity against vancomycin-susceptible Enterococcus faecalis clinical isolates assessed as resistant isolates by broth microdilution method
Enterococcus faecalis [43] = experiment: Antimicrobial activity against Enterococcus faecalis expressing VanB gene clinical isolates by broth microdilution method
[44] = tested on: Staphylococcus haemolyticus; experiment: Antimicrobial activity against Staphylococcus haemolyticus clinical isolates assessed as percent susceptible isolates by broth microdilution method
[45] = tested on: Staphylococcus epidermidis; experiment: Antimicrobial activity against oxacillin-susceptible Staphylococcus epidermidis clinical isolates by broth microdilution method
Enterococcus faecium [46] = experiment: Antimicrobial activity against vancomycin-susceptible Enterococcus faecium clinical isolates by broth microdilution method
[47] = tested on: Staphylococcus epidermidis; experiment: Antimicrobial activity against oxacillin-resistant Staphylococcus epidermidis clinical isolates assessed as percent susceptible isolates by broth microdilution method
Staphylococcus aureus [48] = experiment: Antimicrobial activity against oxacillin-susceptible Staphylococcus aureus clinical isolates assessed as resistant isolates by broth microdilution method
Staphylococcus aureus [49] = experiment: Antimicrobial activity against Staphylococcus aureus clinical isolates assessed as resistant isolates by broth microdilution method
Staphylococcus aureus [50] = experiment: Antimicrobial activity against oxacillin-resistant Staphylococcus aureus clinical isolates assessed as resistant isolates by broth microdilution method
Staphylococcus aureus [51] = experiment: Antimicrobial activity against oxacillin-resistant Staphylococcus aureus clinical isolates assessed as percent susceptible isolates by broth microdilution method
[52] = tested on: Staphylococcus epidermidis; experiment: Antimicrobial activity against oxacillin-resistant Staphylococcus epidermidis clinical isolates assessed as resistant isolates by broth microdilution method
[53] = tested on: Staphylococcus haemolyticus; experiment: Antimicrobial activity against Staphylococcus haemolyticus clinical isolates assessed as resistant isolates by broth microdilution method
[54] = tested on: Staphylococcus epidermidis; experiment: Antimicrobial activity against oxacillin-susceptible Staphylococcus epidermidis clinical isolates assessed as resistant isolates by broth microdilution method
[55] = tested on: Staphylococcus epidermidis; experiment: Antimicrobial activity against Staphylococcus epidermidis clinical isolates assessed as resistant isolates by broth microdilution method
[56] = tested on: Staphylococcus haemolyticus; experiment: Antimicrobial activity against oxacillin-susceptible Staphylococcus haemolyticus clinical isolates assessed as resistant isolates by broth microdilution method
[57] = tested on: Staphylococcus haemolyticus; experiment: Antimicrobial activity against oxacillin-resistant Staphylococcus haemolyticus clinical isolates assessed as resistant isolates by broth microdilution method

CC(=O)NC[C@H]1CN(c2ccc(N3CCOCC3)c(F)c2)C(=O)O1 [LINEZOLID]
Activity (Enterococcus faecalis [1]): 99.9% | Activity [2]: 99.7% | Activity (Staphylococcus aureus [3]): 100% | MIC90 [4]: 1 µg/mL (≈ 2.96 µM) | Activity (Enterococcus faecium [5]): 0% | MIC90 (Enterococcus faecium [6]): 2 µg/mL (≈ 5.93 µM) | Activity (Enterococcus faecium [7]): 3.4% | Activity (Enterococcus faecium [8]): 0.5% | MIC90 (Enterococcus faecalis [9]): 2 µg/mL (≈ 5.93 µM) | MIC90 (Enterococcus faecalis [10]): 2 µg/mL (≈ 5.93 µM) | MIC90 (Enterococcus faecium [11]): 2 µg/mL (≈ 5.93 µM) | MIC90 (Staphylococcus aureus [12]): 2 µg/mL (≈ 5.93 µM) | MIC90 (Enterococcus faecium [13]): 2 µg/mL (≈ 5.93 µM) | Activity [14]: 100% | Activity (Enterococcus faecium [15]): 99.1% | Activity (Enterococcus faecium [16]): 99.5% | Activity (Enterococcus faecalis [17]): 99.8% | MIC90 [18]: 1 µg/mL (≈ 2.96 µM) | Activity (Enterococcus faecalis [19]): 1.1% | Activity [20]: 99.4% | MIC90 (Staphylococcus aureus [21]): 2 µg/mL (≈ 5.93 µM) | Activity (Enterococcus faecalis [22]): 0% | Activity [23]: 99% | Activity (Enterococcus faecium [24]): 99.3% | MIC90 [25]: 1 µg/mL (≈ 2.96 µM) | Activity (Enterococcus faecalis [26]): 1.5% | MIC90 (Enterococcus faecalis [27]): 2 µg/mL (≈ 5.93 µM) | Activity (Staphylococcus aureus [28]): 100% | Activity (Enterococcus faecalis [29]): 98.5% | Activity (Enterococcus faecium [30]): 0.4% | Activity (Enterococcus faecalis [31]): 0.2% | MIC90 [32]: 1 µg/mL (≈ 2.96 µM) | Activity (Enterococcus faecium [33]): 99.4% | MIC90 (Enterococcus faecium [34]): 2 µg/mL (≈ 5.93 µM) | Activity (Enterococcus faecalis [35]): 98.9% | Activity (Enterococcus faecalis [36]): 100% | MIC90 (Enterococcus faecalis [37]): 2 µg/mL (≈ 5.93 µM) | Activity (Enterococcus faecium [38]): 0.6% | MIC90 [39]: 1 µg/mL (≈ 2.96 µM) | MIC90 (Staphylococcus aureus [40]): 2 µg/mL (≈ 5.93 µM) | Activity (Enterococcus faecium [41]): 93.1% | Activity (Enterococcus faecalis [42]): 0.1% | MIC90 (Enterococcus faecalis [43]): 2 µg/mL (≈ 5.93 µM) | Activity [44]: 99.3% | MIC90 [45]: 1 µg/mL (≈ 2.96 µM) | MIC90 (Enterococcus faecium [46]): 2 µg/mL (≈ 5.93 µM)

CCCCCCCCCC(=O)N[C@@H](Cc1c[nH]c2ccccc12)C(=O)N[C@H](CC(N)=O)C(=O)N[C@@H](CC(=O)O)C(=O)N[C@@H]1C(=O)NCC(=O)N[C@@H](CCCN)C(=O)N[C@@H](CC(=O)O)C(=O)N[C@H](C)C(=O)N[C@@H](CC(=O)O)C(=O)NCC(=O)N[C@H](CO)C(=O)N[C@@H]([C@H](C)CC(=O)O)C(=O)N[C@@H](CC(=O)c2ccccc2N)C(=O)O[C@@H]1C
Activity (Enterococcus faecalis [1]): 99.9% | Activity [2]: 100% | Activity (Staphylococcus aureus [3]): 99.9% | MIC90 [4]: 0.5 µg/mL (≈ 0.309 µM) | MIC90 (Enterococcus faecium [6]): 4 µg/mL (≈ 2.47 µM) | MIC90 (Enterococcus faecalis [9]): 2 µg/mL (≈ 1.23 µM) | MIC90 (Enterococcus faecalis [10]): 2 µg/mL (≈ 1.23 µM) | MIC90 (Enterococcus faecium [11]): 4 µg/mL (≈ 2.47 µM) | MIC90 (Staphylococcus aureus [12]): 0.5 µg/mL (≈ 0.309 µM) | MIC90 (Enterococcus faecium [13]): 4 µg/mL (≈ 2.47 µM) | Activity [14]: 100% | Activity (Enterococcus faecium [15]): 98.5% | Activity (Enterococcus faecium [16]): 98.8% | Activity (Enterococcus faecalis [17]): 99.9% | MIC90 [18]: 0.5 µg/mL (≈ 0.309 µM) | Activity [20]: 99.9% | MIC90 (Staphylococcus aureus [21]): 0.5 µg/mL (≈ 0.309 µM) | Activity (Enterococcus faecium [24]): 98.4% | MIC90 [25]: 0.5 µg/mL (≈ 0.309 µM) | MIC90 (Enterococcus faecalis [27]): 2 µg/mL (≈ 1.23 µM) | Activity (Staphylococcus aureus [28]): 99.9% | Activity [47]: 99.8% | Activity (Enterococcus faecalis [29]): 98.5% | MIC90 [32]: 0.5 µg/mL (≈ 0.309 µM) | Activity (Enterococcus faecium [33]): 98.3% | MIC90 (Enterococcus faecium [34]): 4 µg/mL (≈ 2.47 µM) | Activity (Enterococcus faecalis [35]): 98.9% | Activity (Enterococcus faecalis [36]): 100% | MIC90 (Enterococcus faecalis [37]): 2 µg/mL (≈ 1.23 µM) | MIC90 [39]: 0.5 µg/mL (≈ 0.309 µM) | MIC90 (Staphylococcus aureus [40]): 0.5 µg/mL (≈ 0.309 µM) | Activity (Enterococcus faecium [41]): 93.1% | MIC90 (Enterococcus faecalis [43]): 2 µg/mL (≈ 1.23 µM) | Activity [44]: 100% | MIC90 [45]: 0.5 µg/mL (≈ 0.309 µM) | MIC90 (Enterococcus faecium [46]): 4 µg/mL (≈ 2.47 µM)

Cc1onc(-c2ccccc2)c1C(=O)N[C@@H]1C(=O)N2[C@@H]1SC(C)(C)[C@@H]2C(=O)O [OXACILLIN]
Activity [2]: 100% | Activity (Staphylococcus aureus [3]): 100% | MIC90 [4]: 0.25 µg/mL (≈ 0.623 µM) | Percent of isolates resistant (Staphylococcus aureus [48]): 0% | Percent resistant isolates (Staphylococcus aureus [49]): 53.8% | MIC90 (Staphylococcus aureus [12]): > 8 µg/mL | Percent resistant isolates (Staphylococcus aureus [50]): 100% | Activity [14]: 100% | MIC90 [18]: > 8 µg/mL | Activity [20]: 27.3% | MIC90 (Staphylococcus aureus [21]): 0.5 µg/mL (≈ 1.25 µM) | Activity (Staphylococcus aureus [51]): 0% | Activity [23]: 0% | MIC90 [25]: > 8 µg/mL | Percent of isolates resistant [52]: 100% | Resistant isolates [53]: 73.2% | Activity (Staphylococcus aureus [28]): 46.2% | Percent of isolates resistant [54]: 0% | Activity [47]: 0% | MIC90 [32]: > 8 µg/mL | Percent of isolates resistant [55]: 72.7% | Activity [56]: 0% | MIC90 [39]: > 8 µg/mL | Activity [57]: 100% | MIC90 (Staphylococcus aureus [40]): > 8 µg/mL | Activity [44]: 26.8% | MIC90 [45]: 0.12 µg/mL (≈ 0.299 µM)

Reference: ChEMBL document CHEMBL1649268, “Comparative in vitro activity profile of oritavancin against recent gram-positive clinical isolates” (2009)
